Assay results taken from patent US8710045B2, “Agents for preventing and treating disorders involving modulation of the ryanodine receptors” (The Trustees of Columbia University in the City of New York, priority 2004, dated 2014).

Legend:
C57BL/6J mice = experiment: S36 chronic exercise model: swimming velocity tracking and treadmill running; assay type: in vivo, mouse
Description: Drug Delivery: Eight-week-old, wild-type, weight-matched, C57BL/6J littermate mice were randomized to either S36 or vehicle treatment. On day −2, osmotic infusion pumps (Alzet Model 2004, 200 μl total volume, 0.25 μl/hr delivery, Durect, Cupertino, Calif.) filled with either 200 ul of PBS or 200 μl of S36 (10 μg/ul diluted in PBS) were implanted subcutaneously on the dorsal surface of the mice by a horizontal incision just behind the neck. Mice were allowed to recover for three days prior to the initiation of exercise. Standard food and water were provided ad libitum.
Exercise Protocols: Beginning on day 1, mice were exercised for three weeks by swimming 5 days/week and by running on a treadmill an additional 1 day/week.
Swimming Model: The daily swimming protocol consisted of swimming sessions twice-daily separated by one-hour rest periods. After an initial conditioning regimen lasting 5 days during which the swimming sessions were increased in 10 minute increments from 40 minutes each to 80 minutes each, the swimming sessions thereafter lasted 90 minutes each. A 30 cm wide by 30 cm long opaque acrylic tank was filled with tap water to a depth of at least 20 cm. Water was circulated and warmed to 32-34 degrees C. using a separate reservoir with heating element, thermostat, and pump. Compressed room air was bubbled from Tygon tubing with small needle holes placed at the bottom of the tank to agitate the water surface. 4 mice, matched pair-wise with respect to treatment group, swam at any one time in the tank.
In order to track the swimming activity of each individually identified mouse, a video tracking system was used (San Diego Instruments, San Diego, Calif.), which includes Sony CCD video recorder, DVD/Hard Drive, frame grabber card, and custom SMART 2.0 software with Social Behavior package capable of tracking up to 8 mice simultaneously under ideal conditions.) Mice were anesthetized by using 1.5% isoflurane in O2, and small, 0.75 cm, Velcro coins were sutured with 5-0 nylon suture to the scalp of each mouse. Plastic 1 cm colored dots, glued to the hook side of the Velcro, could be securely attached to the mouse and used for multiple subject tracking under appropriate lighting conditions. Each resultant mouse track in x,y, and time was analyzed and mean velocities, and distance swam over 2, 5, and 10 minute intervals was obtained.
Treadmill running: A Columbus Instruments (Columbus, Ohio) treadmill (Model: Exer-6M Treadmill with Treadmill Shock Detection Unit) with 6 lanes was used to run the mice. Mice were placed in their respective lanes at the lowest speed (7 meters/min) with the shocking apparatus turned off and allowed to adjust to the surroundings for 6 minutes. The forward half of the treadmill was covered with aluminum foil to block out light. A desk lamp illuminated the shocking area at the rear of the treadmill. After the adjustment period, the electric current was turned on, and the number of shocks delivered during the next two three minute intervals (training period) were recorded. The shock counter was then reset, the speed was increased to 10 m/min, and visits to the shocking area and shocks delivered to each mouse were recorded at three-minute intervals until the end of the experiment. At regular intervals, the speed of the treadmill was ramped up from the initial 10 m/min to as high as 36 m/min. The speed was increased no more than 2 m/min every 6 minutes. […]

RyR1 = target: T1, RyR1 (Mus musculus, UniProt E9PZQ0); experiment: Analysis of ryanodine receptor complex from EDL after chronic exercise (immunoprecipitation, immunoblot); assay type: in vivo; details: chronic exercise protocol
T1 construct: RyR1 was immunoprecipitated from soleus muscle homogenates of mice following 21 days of exercise; from tissue; host or cells: mouse hind-limb skeletal muscle (soleus, EDL; SR microsomes for bilayer recording)
T1 sequence (E9PZQ0 whole entry): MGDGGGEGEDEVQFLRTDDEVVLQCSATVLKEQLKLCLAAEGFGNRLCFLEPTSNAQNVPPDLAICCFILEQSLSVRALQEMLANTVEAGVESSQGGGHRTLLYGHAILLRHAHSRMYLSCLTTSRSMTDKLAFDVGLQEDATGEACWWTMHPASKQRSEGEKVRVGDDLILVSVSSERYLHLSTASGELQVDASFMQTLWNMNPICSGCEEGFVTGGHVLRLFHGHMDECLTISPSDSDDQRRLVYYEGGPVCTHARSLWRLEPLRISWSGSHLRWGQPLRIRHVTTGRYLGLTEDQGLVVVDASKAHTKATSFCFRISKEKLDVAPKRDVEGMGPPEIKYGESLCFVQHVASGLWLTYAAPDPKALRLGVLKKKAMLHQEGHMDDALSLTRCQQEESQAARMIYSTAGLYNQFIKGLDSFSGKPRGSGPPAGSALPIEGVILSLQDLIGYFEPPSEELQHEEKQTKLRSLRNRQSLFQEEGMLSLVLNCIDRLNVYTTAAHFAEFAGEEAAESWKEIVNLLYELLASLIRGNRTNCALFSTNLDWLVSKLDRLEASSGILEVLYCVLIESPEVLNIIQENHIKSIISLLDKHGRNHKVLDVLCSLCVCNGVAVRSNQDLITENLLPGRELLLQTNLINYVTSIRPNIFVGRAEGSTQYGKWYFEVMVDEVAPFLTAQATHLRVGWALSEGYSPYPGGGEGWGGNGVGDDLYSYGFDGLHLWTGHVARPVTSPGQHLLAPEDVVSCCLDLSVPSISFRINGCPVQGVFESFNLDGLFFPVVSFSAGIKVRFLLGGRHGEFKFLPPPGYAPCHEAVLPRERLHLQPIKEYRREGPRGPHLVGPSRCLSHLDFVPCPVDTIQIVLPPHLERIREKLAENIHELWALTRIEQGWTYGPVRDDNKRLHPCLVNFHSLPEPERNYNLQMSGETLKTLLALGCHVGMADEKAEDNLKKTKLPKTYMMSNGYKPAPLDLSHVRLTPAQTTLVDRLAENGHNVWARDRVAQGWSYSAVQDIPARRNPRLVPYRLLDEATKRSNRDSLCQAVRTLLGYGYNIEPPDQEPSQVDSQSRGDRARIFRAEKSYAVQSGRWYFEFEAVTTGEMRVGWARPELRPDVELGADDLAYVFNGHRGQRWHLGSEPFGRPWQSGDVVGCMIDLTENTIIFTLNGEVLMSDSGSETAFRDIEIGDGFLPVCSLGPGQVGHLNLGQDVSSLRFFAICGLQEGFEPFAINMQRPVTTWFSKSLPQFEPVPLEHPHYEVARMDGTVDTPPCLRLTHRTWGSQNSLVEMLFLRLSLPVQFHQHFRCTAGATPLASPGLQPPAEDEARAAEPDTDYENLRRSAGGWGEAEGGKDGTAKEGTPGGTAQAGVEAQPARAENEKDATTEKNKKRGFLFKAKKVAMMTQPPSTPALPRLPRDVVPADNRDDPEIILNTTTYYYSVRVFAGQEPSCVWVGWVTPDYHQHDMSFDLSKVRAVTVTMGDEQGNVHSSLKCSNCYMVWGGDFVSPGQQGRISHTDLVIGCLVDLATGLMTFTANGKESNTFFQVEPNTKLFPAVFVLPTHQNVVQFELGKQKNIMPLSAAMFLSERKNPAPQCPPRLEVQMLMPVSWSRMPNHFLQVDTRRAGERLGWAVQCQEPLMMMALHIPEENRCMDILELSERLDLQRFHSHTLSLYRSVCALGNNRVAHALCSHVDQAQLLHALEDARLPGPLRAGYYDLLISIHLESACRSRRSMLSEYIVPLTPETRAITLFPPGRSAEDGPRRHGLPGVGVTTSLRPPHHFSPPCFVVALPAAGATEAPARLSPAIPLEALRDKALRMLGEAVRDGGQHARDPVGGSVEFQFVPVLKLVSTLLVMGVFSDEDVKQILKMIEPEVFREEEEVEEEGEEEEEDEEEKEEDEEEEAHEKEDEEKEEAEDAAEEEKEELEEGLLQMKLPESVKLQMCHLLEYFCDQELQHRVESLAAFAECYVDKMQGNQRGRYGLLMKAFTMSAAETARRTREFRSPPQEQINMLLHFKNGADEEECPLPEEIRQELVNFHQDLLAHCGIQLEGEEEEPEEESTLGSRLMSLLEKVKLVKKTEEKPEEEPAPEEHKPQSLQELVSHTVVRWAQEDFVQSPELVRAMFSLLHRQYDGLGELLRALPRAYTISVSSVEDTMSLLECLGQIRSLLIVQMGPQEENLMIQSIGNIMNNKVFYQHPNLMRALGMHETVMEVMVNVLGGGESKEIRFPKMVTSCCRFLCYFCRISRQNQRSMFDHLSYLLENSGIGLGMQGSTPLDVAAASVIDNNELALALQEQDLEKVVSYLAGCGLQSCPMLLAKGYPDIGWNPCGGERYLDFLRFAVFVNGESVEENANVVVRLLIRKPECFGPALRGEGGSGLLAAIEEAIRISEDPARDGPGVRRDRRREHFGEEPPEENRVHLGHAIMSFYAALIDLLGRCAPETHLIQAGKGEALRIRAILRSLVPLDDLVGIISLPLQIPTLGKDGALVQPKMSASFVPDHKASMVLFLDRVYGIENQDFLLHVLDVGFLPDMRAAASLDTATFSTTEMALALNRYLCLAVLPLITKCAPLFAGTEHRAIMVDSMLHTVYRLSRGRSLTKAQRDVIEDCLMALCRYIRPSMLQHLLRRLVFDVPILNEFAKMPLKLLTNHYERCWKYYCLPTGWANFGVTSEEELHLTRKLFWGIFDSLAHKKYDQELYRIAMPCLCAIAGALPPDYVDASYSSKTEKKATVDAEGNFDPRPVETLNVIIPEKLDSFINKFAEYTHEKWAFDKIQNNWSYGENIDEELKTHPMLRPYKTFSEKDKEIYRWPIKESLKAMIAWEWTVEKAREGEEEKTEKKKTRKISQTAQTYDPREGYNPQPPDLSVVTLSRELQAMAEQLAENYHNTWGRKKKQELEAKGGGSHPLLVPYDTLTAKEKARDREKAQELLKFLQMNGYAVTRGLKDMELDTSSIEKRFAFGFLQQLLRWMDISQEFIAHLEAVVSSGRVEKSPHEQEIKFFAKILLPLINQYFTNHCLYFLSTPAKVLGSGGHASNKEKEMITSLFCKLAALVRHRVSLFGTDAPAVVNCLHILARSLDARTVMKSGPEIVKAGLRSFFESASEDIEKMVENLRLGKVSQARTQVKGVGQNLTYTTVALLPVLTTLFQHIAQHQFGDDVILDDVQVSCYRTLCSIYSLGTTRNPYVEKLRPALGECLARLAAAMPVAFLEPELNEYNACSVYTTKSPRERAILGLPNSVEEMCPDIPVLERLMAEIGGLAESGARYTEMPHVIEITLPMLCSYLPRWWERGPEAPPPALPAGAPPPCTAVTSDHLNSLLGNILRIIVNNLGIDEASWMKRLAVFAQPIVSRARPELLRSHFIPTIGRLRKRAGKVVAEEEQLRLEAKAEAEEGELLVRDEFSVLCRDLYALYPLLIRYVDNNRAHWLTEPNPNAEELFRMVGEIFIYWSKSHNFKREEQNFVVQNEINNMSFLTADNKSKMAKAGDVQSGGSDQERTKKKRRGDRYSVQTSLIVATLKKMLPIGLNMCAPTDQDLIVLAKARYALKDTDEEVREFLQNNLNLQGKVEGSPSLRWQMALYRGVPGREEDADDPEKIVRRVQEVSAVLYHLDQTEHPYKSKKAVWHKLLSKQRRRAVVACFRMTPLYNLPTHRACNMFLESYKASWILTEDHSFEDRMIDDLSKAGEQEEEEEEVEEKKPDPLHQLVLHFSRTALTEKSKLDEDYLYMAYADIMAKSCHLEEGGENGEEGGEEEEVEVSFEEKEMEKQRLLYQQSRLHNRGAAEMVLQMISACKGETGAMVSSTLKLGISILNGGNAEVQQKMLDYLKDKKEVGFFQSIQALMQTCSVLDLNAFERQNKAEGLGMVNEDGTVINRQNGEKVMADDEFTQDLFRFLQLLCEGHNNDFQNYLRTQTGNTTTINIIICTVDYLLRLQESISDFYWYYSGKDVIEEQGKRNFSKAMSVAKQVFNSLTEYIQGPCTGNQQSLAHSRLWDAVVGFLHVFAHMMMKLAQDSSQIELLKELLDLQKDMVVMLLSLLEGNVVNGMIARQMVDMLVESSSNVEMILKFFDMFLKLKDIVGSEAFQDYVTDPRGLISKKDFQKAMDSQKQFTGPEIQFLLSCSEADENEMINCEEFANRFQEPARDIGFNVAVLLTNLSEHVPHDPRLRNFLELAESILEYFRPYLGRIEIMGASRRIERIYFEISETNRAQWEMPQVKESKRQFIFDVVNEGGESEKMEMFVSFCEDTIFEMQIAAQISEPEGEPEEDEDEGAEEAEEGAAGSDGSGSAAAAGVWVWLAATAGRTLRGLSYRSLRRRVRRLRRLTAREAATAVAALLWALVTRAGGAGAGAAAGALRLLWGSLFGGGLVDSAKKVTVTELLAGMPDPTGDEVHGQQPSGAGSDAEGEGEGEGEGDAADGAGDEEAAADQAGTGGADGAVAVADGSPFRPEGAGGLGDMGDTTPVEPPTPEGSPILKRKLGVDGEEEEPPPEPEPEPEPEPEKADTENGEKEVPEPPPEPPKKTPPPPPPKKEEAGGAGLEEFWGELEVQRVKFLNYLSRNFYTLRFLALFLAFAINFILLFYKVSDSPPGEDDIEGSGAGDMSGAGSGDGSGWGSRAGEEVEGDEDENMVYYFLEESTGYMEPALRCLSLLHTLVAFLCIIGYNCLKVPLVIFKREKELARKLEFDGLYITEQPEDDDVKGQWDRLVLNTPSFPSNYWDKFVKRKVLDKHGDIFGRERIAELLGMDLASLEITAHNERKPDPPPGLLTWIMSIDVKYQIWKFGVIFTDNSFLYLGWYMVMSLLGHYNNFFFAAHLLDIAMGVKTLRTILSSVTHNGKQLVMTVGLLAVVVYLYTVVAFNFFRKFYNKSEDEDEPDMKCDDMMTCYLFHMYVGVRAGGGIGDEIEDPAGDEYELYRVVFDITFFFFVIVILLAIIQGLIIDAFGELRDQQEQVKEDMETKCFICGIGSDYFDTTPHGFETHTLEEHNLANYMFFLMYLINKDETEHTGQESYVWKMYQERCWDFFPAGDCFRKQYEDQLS
T1 sequence (P26883 2-108 partner limits assumed): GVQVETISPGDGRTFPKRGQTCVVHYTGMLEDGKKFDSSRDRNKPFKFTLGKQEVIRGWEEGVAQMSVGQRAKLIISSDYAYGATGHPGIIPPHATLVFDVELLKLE
Description: Analysis of Ryanodine Receptor Complex: 10 mg muscle samples were isotonically lysed. […] The samples were incubated with protein A Sepharose beads (Amersham Pharmacia) at 4° C. for 1 h, after which the beads were washed three times with buffer. Proteins were separated on SDS-PAGE gels (4-20% gradient) and transferred onto nitrocellulose membranes overnight (SemiDry transfer blot, Bio-Rad). After incubation with blocking solution (LICOR Biosciences, Lincoln Nebr.) to prevent non-specific antibody binding and a wash in Tris-buffered saline with 0.1% Tween-20, membranes were incubated for 1-2 h at room temperature with primary antibodies anti-calstabin (1:2500 in blocking buffer), anti-RyR (5029, 1:5,000), or anti-phospho-RyR2-pSer2809 (1:5000), which detects PKA-phosphorylated mouse RyR1-pSer2844 and RyR2-pSer2808, anti-PDE4D3 (1:1000). After three washes, membranes were incubated with infrared labeled secondary antibodies (1:10,000 dilution, LICOR Biosystems). Band densities were quantified using the Odyssey Infrared Imaging System (LICOR Biosciences).

EDL muscle = experiment: Isometric force production of isolated EDL muscle after chronic exercise; assay type: in vivo, mouse; details: stimulation frequencies greater than 80 Hz
Description: Intact muscle preparation: Immediately following a forced exercise session, each mouse was sacrificed by carbon dioxide inhalation and cervical dislocation. Blood was removed by intracardiac aspiration, spun down, and plasma was eluted and frozen in liquid nitrogen. 4-0 silk sutures were tied to the proximal and distal tendons of intact EDL and soleus muscles and the muscles were dissected free and placed in a modified Ringer's solution (140 mM NaCl, 5 mM KCl, 2.0 mM CaCl2, 2 mM MgCl2, 10 mM HEPES, 10 mM glucose, pH 7.4) bubbled with 100% O2. […] After perfusion with 35C Ringer's and equilibration for 10 minutes at a resting tension of 1 cN and a brief potentiation protocol, force-frequency relationships were measured, with 60 second delays between 800 ms stimulations at 40-150 Hz. […] Following stimulation, muscle length was determined at resting tension, and muscle dry weight was recorded.
Age and sex-matched WT mice were randomized to receive osmotic pumps containing either S107 or vehicle. […] Exercise capacity was assessed once a week by a level treadmill run to exhaustion during the nocturnal cycle of the mouse. […] Isometric force production was measured in EDL muscles in a tissue bath during field stimulation.

[1] = tested on: L-type calcium channel current; experiment: S107 specificity: L-type calcium channel current; details: 500 nM
RyR = experiment: Calstabin binding to RyR in brain after isoproterenol infusion (RyR immunoprecipitation, western blot)
Description: Tissue lysates were prepared by homogenizing the tissue (e.g., brain, cardiac, muscle) with Tissuemiser in 0.7 ml lysis buffer (pH 7.4, 10 mM HEPES, 1 mM EDTA, 20 mM NaF, 2 mM Na3 VO4, 320 mM sucrose, and protease inhibitors) and centrifuged for 15 min at 4,000×g at 4° C. The supernatant was then centrifuged for 15 min at 10,000×g at 4° C. For brain homogenates, the supernatant was centrifuged at 50,000×g at 4° C. for 30 minutes, and the pellet (microsomes) was resuspended in homogenization buffer which was supplemented with 0.9% NaCl. For brain tissue, the resuspended pellet was used for immunoprecipitation of RyR. For cardiac and muscle tissue homogenates, the supernatant of the 10,000×g spin was used for immunoprecipitation of the RyR. Protein concentrations were measured by Bradford protein assay. The sample was frozen at −80° C. until use.
100 μg of microsomes were brought to a volume of 500 μl with modified RIP A buffer (50 mM Tris-HCl (PH 7.4), 0.9% NaCl, 5.0 mM NaF, 1.0 mM Na3VO4, 0.5% TritonX100, and protease inhibitors). […]
Experiments were performed to determine whether the compounds described herein cross the blood brain barrier and enhance binding of cal stab in to ryanodine receptors in the brain. […] RyR was immunoprecipitated using an antibody to RyR, and the presence of calstabin in the immunoprecipitates was detected using an antibody to calstabin.

COc1ccc2c(c1)CN(C(=O)C(=O)O)CCS2 [S36]
swimming velocity vs PBS (C57BL/6J mice; day 1 of exercise): no substantial difference | swimming velocity and treadmill distance/fatigue time vs PBS (C57BL/6J mice; day 7 of exercise): no substantial difference | swimming velocity vs PBS (C57BL/6J mice; day 14): no significant difference | treadmill running performance vs PBS (C57BL/6J mice; day 14): trend toward improved performance | treadmill running performance vs PBS (C57BL/6J mice; day 16): trend toward improved performance

COc1ccc2c(c1)CN(C)CCS2 [S107]
Calstabin1 depletion from RyR1 (RyR1): nearly entirely reversed | EDL isometric force production (EDL muscle): increased force production | effect on L-type calcium channel current [1]: not to affect | blood brain barrier penetration (RyR; mice): crosses the blood brain barrier | in vivo binding of calstabin to RyR (RyR; mid-brain and cerebellum, after isoproterenol infusion for 5 days): restores in vivo binding of calstabin to RyR
